These results are taken from US20170217914A1, “Novel Triarylethylene Compounds and Methods Using Same” (The Penn State Research Foundation, priority 2014, published 2017).

Where two headings read alike, the source gives them in different places. Some results are limits rather than exact numbers.

One data set has as its system MCF-7 cells. As to the kind of experiment: Live/Dead assay by flow cytometry, MCF-7 cells. The data set is classed as cell-based, human. Particulars: 24 h. The source says: (§1) To measure cell death, the Live/Dead assay (Life technologies, USA) was used, which determines intracellular esterase activity and plasma membrane integrity (Pandey et al., 2013, PloS One 8:e78570). Nonfluorescent polyanionic dye calcein AM is retained by live cells and by enzymatic conversion (esterase) it becomes fluorescent, produces intense green fluorescence in live cells. Ethidium homodimer enters cells with damaged membranes and binds to nucleic acids, thereby producing a bright red fluorescence in dead cells. […] Cells were stained with the Live and Dead reagent (5 μM ethidium homodimer and 5 μM calcein-AM) and analyzed by flow cytometry according to the manufacture's protocols.
For orientation: A flow cytometer gives signals particle by particle.

Data set [1] relates to normal mouse embryonic fibroblast (MEF) cells. Nature of the data set: MTT cell viability assay, normal MEF cells. Particulars: 48 h. (Tetrazolium dyes change colour on reduction, which living cells bring about.)
Protocol: (§3) An MTT solution was added to each well and incubated for 3 h at 37° C. After 3 h, DMSO was added and the optical density was measured at 570 nm using a 96-well multiscanner (Dynex Technologies, MRX Revelation; Chantilly, Va., USA). Backgrounds were subtracted at 630 nm. IC50 values were calculated by non-linear regression analysis using Prism software.
The test system of data set [2] is MCF-7 (ER-positive) human breast cancer cell line. As to the kind of experiment: MTT cell viability assay, MCF-7 cells. To be noted: for anticancer activity in initial screening: 0.5-25 μM, 48 h (FIG. 3); for times more cytotoxic than Tamoxifen / times more effective than Ospemifene: 96 h time point; for IC50: Homo sapiens; for cytotoxic activity: 72 h, versus Ospemifene and Tamoxifen.
Protocol: as §3
(§4) The effects of novel triarylethylene derivatives on the cell viability were determined by the MTT uptake method using previously described methods (Kaur et al., 2014, Eur. J. Med. Chem. 86:211-218). Briefly, 3000 cells were incubated with various concentrations of compounds in triplicate in a 96-well plate for 72 h at 37° C. An MTT solution was added to each well and incubated for 3 h at 37° C. After 3 h, DMSO was added and the optical density was measured at 570 nm using a 96-well multiscanner (Dynex Technologies, MRX Revelation; Chantilly, Va., USA). Backgrounds were subtracted at 630 nm. IC50 values were calculated by non-linear regression analysis using Prism software.

Data set [3] deals with MDA-MB-231 (ER-negative) human breast cancer cell line. As to the kind of experiment: MTT cell viability assay, MDA-MB-231 cells. Particulars: for anticancer activity in initial screening: 0.5-25 μM, 48 h (FIG. 3); for times more cytotoxic than Tamoxifen / times more effective than Ospemifene: 96 h time point; for IC50: Homo sapiens; for cytotoxic activity: 72 h, versus Ospemifene and Tamoxifen.
Protocol: as §3, §4

The test system of data set [4] is MDA-MB-231 cells. As to the kind of experiment: Live/Dead assay by flow cytometry, MDA-MB-231 cells. Format: cell-based, human. Particulars: 24 h, 10 μM.
Excerpt: as §1

Another data set relates to c-Myc. Nature of the data set: Western blot, c-Myc expression in breast cancer cells. The data set is classed as cell-based, human. To be noted: MDA-MB-231 and MCF-7 cells, 24 h. Here is the method: (§2) To determine the effect of novel triarylethylene derivatives on proteins involved in metastasis, and adhesion, whole-cell extracts were prepared by subjecting cells to lysis in RIPA buffer supplemented with protease and phosphatase inhibitor cocktails using previously described methods (Pandey et al., 2014, Exp. Hematol. 42:883-896). Lysates were spun at 15,000 rpm for 10 minutes to remove insoluble material. Supernatant were collected and kept at −80° C. Lysates were resolved by SDS-PAGE. After electrophoresis, the proteins were electro-transferred to PVDF membranes, blotted with the relevant antibodies, and detected by enhanced chemo-luminescence reagent.

The next data set relates to caveolin. As to the kind of experiment: Western blot, caveolin expression in breast cancer cells. Format: cell-based, human. Particulars: MDA-MB-231 and MCF-7 cells, 24 h. The protocol:
as §2
(A western blot detects proteins with antibodies after separation by electrophoresis.)

For another data set, the system named is MMP-9. As to the kind of experiment: Western blot, MMP-9 expression in breast cancer cells. Format: cell-based, human. To be noted: MDA-MB-231 and MCF-7 cells, 24 h. The protocol: as §2
Data set [5] relates to MDA-MB-231 cells. As to the kind of experiment: In vitro Matrigel invasion assay. The data set is classed as cell-based, human. Particulars: dose dependent. Here is the method: Human breast cancer MDA-MB-231 cells were serum starved for 24 h in serum-free medium (DMEM without FBS). After starving 50,000 cells were transferred onto Matrigel pre-coated invasion inserts (upper chamber, BD Biocoat). Lower chambers of plate were filled with complete medium (DMEM and 10% FBS) and cells were allowed to migrate under chemotaxis. […] After incubation cells that had invaded to the opposite side of the Transwell membrane were washed with PBS and fixed in chilled 70% ethanol for 15 min and air dried. Cells were stained with 0.5% crystal violet for 10 min. Cells were washed, dried, and images were captured at 40× magnification.

The mark [6] stands for this setting: MCF7, 48 h, read-out: MCF-7 (ER positive) IC50.
[7] abbreviates: MCF7, 96 h, read-out: MCF-7 (ER positive) IC50.
Where [8] appears, read: MDA-MB-231, 48 h, read-out: MDA-MB-231 (ER− negative) IC50.
[9] abbreviates: MDA-MB-231, 96 h, read-out: MDA-MB-231 (ER− negative) IC50.
Setting [10] is: MCF7, 72 h, read-out: MCF-7 IC50.
Where [11] appears, read: MDA-MB-231, 72 h, read-out: MDA-MB-231 IC50.

For `NCC/C(=C(\c1ccccc1)c1ccc(OCCO)cc1)c1ccccc1` [Compound 6, (Z)-2-{4-(4-amino-1,2-diphenylbut-1-enyl)phenoxy}ethanol], the dead cells in the data set with MCF-7 cells (increasing amount of compound) is 50-70%. In addition, the “toxicity to normal MEF cells” value in [1] is on record as “non-toxic”. Further, the “anticancer activity in initial screening” value in [2] and in [3] was “more potent than Ospemifene” throughout. The “times more cytotoxic than Tamoxifen” value in [2] and in [3] was “at least five” each time. Besides, the “times more effective than Ospemifene” value in [2] is “about five”; in data set [3] it was “eight”. The IC50 in data set [2] (setting [6]) turned out to be 15.9 µM; in data set [2] (setting [7]) it was 12.4 µM; in data set [3] (setting [8]), 25 µM; in [3] (setting [9]), 14.5 µM.

For the compound `NCCOc1ccc(/C(=C(/CCN)c2ccccc2)c2ccccc2)cc1` [Compound 7, (Z)-4-{4-(2-aminoethoxy)phenyl}-3,4-diphenylbut-3-en-1-amine], the cells killed in the data set on MCF-7 cells (10 μM) and with MDA-MB-231 cells [4] was 70% each time. Further, the “toxicity to normal MEF cells” value in [1] is given as “non-toxic”. The “anticancer activity in initial screening” value in data set [2] and in data set [3] was “more potent than Ospemifene” throughout. Also, the “times more cytotoxic than Tamoxifen” value in data set [2] and in data set [3] was “at least five” each time. In addition, the “times more effective than Ospemifene” value in data set [2] is “about five”; in data set [3], “eight”. Moreover, the IC50 in data set [2] (setting [6]) came to 23.6 µM; in data set [2] (setting [7]) it was 11.2 µM; in data set [3] (setting [8]), 17.1 µM; in data set [3] (setting [9]) it was 13.4 µM.

Regarding `COc1ccc(/C(=C(/CCN)c2ccccc2)c2ccccc2)cc1` [Compound 13, (Z)-4-(4-Methoxyphenyl)-3,4-diphenylbut-3-en-1-amine], the melting point fell in the range of 129 to 131 °C. Further, the “expression of c-Myc” value in the data set on c-Myc is given as “inhibited the expression”. In addition, the expression of caveolin result with caveolin is on record as “inhibited the expression”. Besides, the “effectiveness versus Ospemifene and Tamoxifen” value in data set [2] (MTT, 0.5-100 μM, 48 h (FIG. 28B)) is reported as “more effective”. For the same compound, the “cytotoxic activity” value in [2] (MTT) is “remarkable activity”. Besides, the “expression of MMP-9” value with MMP-9 was “inhibited the expression”. Also, the “effectiveness versus Ospemifene and Tamoxifen” value in data set [3] (MTT, 0.5-100 μM, 48 h (FIG. 28A)) is listed as “more effective”. Besides, the “cytotoxic activity” value in data set [3] (MTT) is reported as “remarkable activity”.

Compound `CCN(CC)C(=O)NCC/C(=C(\c1ccccc1)c1ccc(OC)cc1)c1ccccc1` [Compound 19, (Z)-1,1-Diethyl-3-(4-(4-methoxyphenyl)-3,4-diphenylbut-3-enyl)urea] registered a melting point of 159 to 160 °C. Further, the IC50 in data set [2] (setting [10]) was over 50 µM. In addition, the IC50 in data set [3] (setting [11]) amounted to 40.7 ± 12.2 µM.

`COc1ccc(/C(=C(/CCNC(=O)N2CCCCC2)c2ccccc2)c2ccccc2)cc1` [Compound 20, (Z)—N-(4-(4-Methoxyphenyl)-3,4-diphenylbut-3-enyl)piperidine-1-carboxamide]: the melting point is 197 to 198 °C. Moreover, the IC50 in [2] (setting [10]) was over 50 µM. Besides, the IC50 in [3] (setting [11]) was over 50 µM.

With `COc1ccc(/C(=C(/CCNC(=O)N2CCCC2)c2ccccc2)c2ccccc2)cc1` [Compound 21, (Z)—N-(4-(4-Methoxyphenyl)-3,4-diphenylbut-3-enyl)pyrrolidine-1-carboxamide], the melting point lay within 194.2 to 195.4 °C. The IC50 in [2] (setting [10]) was over 50 µM. In data set [3] (setting [11]), the IC50 was over 50 µM.

`COc1ccc(/C(=C(/CCNC(=O)C(=O)NCc2ccccc2)c2ccccc2)c2ccccc2)cc1` [Compound 22, (Z)—N1-Benzyl-N2-(4-(4-methoxyphenyl)-3,4-diphenylbut-3-enyl)oxalamide] came in with a melting point of 169 to 172 °C. The “expression of c-Myc” value in the data set on c-Myc was “inhibited the expression”. For the same compound, in the data set on caveolin, the expression of caveolin result is “did not inhibit the expression”. Besides, the IC50 in data set [2] (setting [10]) was over 50 µM. In addition, the “expression of MMP-9” value with MMP-9 was “inhibited the expression”. The IC50 in [3] (setting [11]) was 11.5 ± 3.8 µM. Also, the “cytotoxic activity” value in data set [3] (MTT) was “selectively cytotoxic”.

Compound `COc1ccc(/C(=C(/CCNC(=O)C(=O)NC2CCCCC2)c2ccccc2)c2ccccc2)cc1` [Compound 23, (Z)—N1-Cyclohexyl-N2-(4-(4-methoxyphenyl)-3,4-diphenylbut-3-enyl)oxalamide] yielded a melting point of 198 to 199 °C. Besides, the “expression of c-Myc” value in the data set with c-Myc is “inhibited the expression”. The expression of caveolin entry with caveolin is reported as “did not inhibit the expression”. Moreover, the IC50 in data set [2] (setting [10]) worked out at 12.1 ± 4.5 µM. Also, in data set [2] (MTT), the “cytotoxic activity” value was “remarkable activity”. Further, the “expression of MMP-9” value with MMP-9 is “inhibited the expression”. In addition, in [3] (setting [11]), the IC50 amounted to 12.2 ± 5.3 µM. For the same compound, the “cytotoxic activity” value in data set [3] (MTT) is “remarkable activity”.

`COc1ccc(/C(=C(/CCNC(=O)C(=O)N2CCCC2)c2ccccc2)c2ccccc2)cc1` [Compound 24, (Z)—N-(4-(4-Methoxyphenyl)-3,4-diphenylbut-3-enyl)-2-oxo-2-(pyrrolidin-1-yl)acetamide]: the melting point lay within 151 to 152 °C. For the same compound, in data set [2] (setting [10]), the IC50 is over 50 µM. In addition, the IC50 in data set [3] (setting [11]) was 48.6 ± 14.5 µM.

`COc1ccc(/C(=C(/CCNC(=O)C(=O)N2CCOCC2)c2ccccc2)c2ccccc2)cc1` [Compound 25, (Z)—N-(4-(4-Methoxyphenyl)-3,4-diphenylbut-3-enyl)-2-morpholino-2-oxoacetamide] returned a melting point of 118.4 to 119.3 °C. Further, in [2] (setting [10]), the half-inhibitory concentration (IC50) turned out to be 43.4 ± 7.5 µM. The IC50 in data set [3] (setting [11]) was 20 ± 9.8 µM. Further, the “cytotoxic activity” value in [3] (MTT) is recorded as “good activity”.

Regarding `COc1ccc(/C(=C(/CCNC(=O)C(=O)N2CCCCC2)c2ccccc2)c2ccccc2)cc1` [Compound 26, (Z)—N-(4-(4-Methoxyphenyl)-3,4-diphenylbut-3-enyl)-2-oxo-2-(piperidin-1-yl)acetamide], the melting point was in the range of 125 to 127 °C. For the same compound, the IC50 in data set [2] (setting [10]) was over 50 µM. For the same compound, the IC50 in [3] (setting [11]) was over 50 µM.

Turning to `OCCOc1ccc(/C(=C(/CCCl)c2ccccc2)c2ccccc2)cc1` [Ospemifene, (Z)-2-{4-(4-chloro-1,2-diphenylbut-1-enyl)phenoxy}ethanol, reference compound], the “toxicity to normal MEF cells” value in data set [1] was “non-toxic”. The IC50 is over 100 µM in [2] (setting [6]), 55 µM in data set [2] (setting [7]), over 100 µM in [3] (setting [8]) and over 100 µM in data set [3] (setting [9]). This compound had a cell death in data set [2] (initial screening, 25 μM) of about 40%.

In the case of “(Z)-Ethyl-2-(4-(4-methoxyphenyl)-3,4-diphenylbut-3-enylamino)-2-oxoacetate [Compound 15]”, the “cytotoxic activity” value in data set [2] (MTT) and in [3] (MTT) was “much more effective than the standards” in each case. For the same compound, the “expression of MMP-9” value in the data set with MMP-9 was “modulated the expression”.

“(Z)-Phenyl-4-(4-methoxyphenyl)-3,4-diphenylbut-3-enylcarbamate [Compound 14]”: the “cytotoxic activity” value in [2] (MTT) and in data set [3] (MTT) was “much more effective than the standards” each time. Moreover, the “expression of MMP-9” value in the data set with MMP-9 was “modulated the expression”.

With “(Z)-[4-azido-1-{4-(2-azidoethoxy) phenyl}but-1-ene-1,2-diyl]dibenzene [Compound 5]”, the “expression of c-Myc” value with c-Myc is given as “inhibited the expression”. In addition, the expression of caveolin entry in the data set on caveolin was “inhibited the expression”. For the same compound, the “effect on invasion of ER-negative cells” value in the data set with MDA-MB-231 cells [5] is reported as “suppressed the invasion”. For the same compound, the “cytotoxic activity” value in [2] (MTT) and in data set [3] (MTT) was “much more effective than the standards” in each case. Besides, the “expression of MMP-9” value in the data set on MMP-9 is given as “inhibited the expression”.

A word on the IC50: it is the midpoint of a concentration-inhibition curve. What is called melting point is the temperature of the solid-liquid transition.
